# Counter-ions that a name gives are not always drawn. Like-named read-outs stand apart in the source and are kept apart here. Residues, ends and D or L forms follow the SMILES beside them. *: point of attachment. Cbz = O=C(OCc1ccccc1)*
# Tested on: murine neural precursor cells (neurosphere cultures)
# Assay: HTS of LOPAC library against secondary neurosphere cultures, MTT proliferation assay at 3 μM, day 7 (z score, P value)
# Type: cell-based, mouse
# [1] = primary LOPAC screen, 3 μM, MTT, neurosphere proliferation
# [2] = yes/no: significantly inhibited neurosphere proliferation in the primary screen
# [3] = LOPAC library screen, 3 μM, MTT, secondary neurosphere cultures, day 7
# [4] = LOPAC primary screen, neurosphere MTT proliferation, 3 μM, day 7
# [5] = yes/no: significantly inhibited neurosphere proliferation (P<0.01) in the primary screen
# [6] = LOPAC library screen, 3 μM, MTT, neurosphere cultures
# [7] = LOPAC library screen at 3 μM, secondary neurosphere cultures, MTT
# [8] = LOPAC screen, neurosphere MTT proliferation, 3 μM, day 7
# [9] = yes = significantly inhibited neurosphere proliferation (P<0.01) in the primary screen
# [10] = yes/no: significantly inhibited neurosphere proliferation (P<0.01) in primary screen
# [11] = LOPAC library screen at 3 μM, MTT, secondary neurosphere cultures, screened in singlets
# [12] = yes/no: significantly inhibited neurosphere proliferation in primary screen
molecule,measurement,setting,value
Cl.c1ccc(CN(CC2=NCCN2)c2ccccc2)cc1 [Antozoline hydrochloride],Z Score,,0.4854
same,Z score,[1],0.485
same,Activity,[2],no
CC(C)[C@H](CO)Nc1nc(Nc2cccc(Cl)c2)c2ncn(C(C)C)c2n1 [Purvalanol A],Z Score,[3],−11.23
same,Z score,[4],−11.234
same,Activity,[5],yes
CC(C)N(CCC(C(N)=O)(c1ccccc1)c1ccccn1)C(C)C (stereo not shown) [Disopyramide phosphate],Z Score,[6],−0.07187
same,Z score,[4],−0.072
same,Activity,[5],no
CCCCCCCCCC(=O)NC(CN1CCOCC1)[C@H](O)c1ccccc1.Cl (stereo partly shown),Z Score,[7],−1.109
NC(CO)C(=O)NNCc1ccc(O)c(O)c1O (stereo not shown) [Benserazide hydrochloride],Activity,,no
same,Z Score,[6],0.007467
same,Z score,[8],0.007
CC(C)(C)c1onc(OCP(=O)(O)O)c1CC(N)C(=O)O (stereo not shown) [ATPO],Z Score,,−1.68
same,Z score,[1],−1.680
same,Activity,[2],no
CCCC(CCC)C(=O)O.[Na] [Valproic acid sodium],Z Score,[7],−0.09493
same,Z score,[4],−0.095
same,Activity,[9],no
CC(=O)O[C@]1(C(C)=O)CC[C@H]2[C@@H]3C=C(Cl)C4=CC(=O)[C@@H]5C[C@@H]5[C@]4(C)[C@H]3CC[C@@]21C [Cyproterone acetate],Z Score,[3],−1.803
same,Z score,[8],−1.803
same,Activity,[10],no
CCCCOc1cc(CC2CNC(=O)N2)ccc1OC (racemic) [Ro 20-1724],Z Score,,0.5874
same,Z score,[8],0.587
same,Activity,[10],no
O=c1c2ccccc2[se]n1-c1ccccc1 [Ebselen],Z Score,[7],−0.2515
same,Z score,[4],−0.251
"Nc1ccc2c3c(cccc13)C(=O)NC2=O [4-Amino-1,8-naphthalimide]",Z Score,[11],1.875
same,Z score,[4],1.875
same,Activity,[12],no
CC(=O)SCC[N+](C)(C)C.[Cl-] [Acetylthiocholine chloride],Z score,[1],0.004
same,Activity,[2],no
Cl.N[C@@H](CCl)C(=O)O [beta-Chloro-L-alanine hydrochloride],Z Score,,−1.39
same,Z score,[8],−1.390
same,Activity,[10],no
COc1c2c(nc3ccccc13)OC(C(C)(O)CO)C2 (stereo not shown) [Dubinidine],Z Score,,−2.437
same,Z score,[4],−2.437
same,Activity,[5],yes
COc1cc(-c2ccc(=O)[nH]n2)ccc1OC(F)F [Zardaverine],Z Score,[7],−0.3412
same,Z score,[1],−0.341
Clc1ccc(N2CC3CCC(C2)N3)nn1 [DBO-83],Z Score,,−1.279
same,Z score,[8],−1.279
same,Activity,[10],no
CN(C)CCCN1c2ccccc2CCc2ccc(Cl)cc21 [Clomipramine hydrochloride],Activity,,no
same,Z Score,[7],−0.8439
same,Z score,[4],−0.844
CCN(CC)CCCC(C)Nc1c2ccc(Cl)cc2nc2ccc(OC)cc12 (stereo not shown) [Quinacrine dihydrochloride],Activity,,yes
same,Z Score,[3],−9.712
same,Z score,[4],−9.712
CNCCC(Oc1ccccc1OC)c1ccccc1 (stereo not shown) [Nisoxetine hydrochloride],Z Score,,0.8336
same,Z score,,0.834
NCCCNCCSP(=O)(O)O [Amifostine],Z Score,"168 h, 3 µM",0.3592
same,Z score,"168 h, 3 µM",0.359
same,Activity,[9],no
CC(=O)N1CCN(c2ccc(OCC3COC(Cn4ccnc4)(c4ccc(Cl)cc4Cl)O3)cc2)CC1 (stereo not shown) [Ketoconazole],Activity,,no
same,Z Score,"168 h, 3 µM",0.586
same,Z score,"168 h, 3 µM",0.586
"Cc1c(CC(C)(C)C(=O)O)n(Cc2ccc(Cl)cc2)c2ccc(F)cc12 [L-655,240]",Z Score,,−0.121
same,Z score,[4],−0.121
same,Activity,[10],no
Oc1ccc(Cn2ccnc2S)cc1 [1-(4-Hydroxybenzyl)imidazole-2-thiol],Z Score,"168 h, 3 µM",0.7628
same,Z score,"168 h, 3 µM",0.763
same,Activity,[10],no
O=C1c2c(O)cc(O)cc2OC(c2ccc(O)c(O)c2)C1O (stereo not shown) [(B1)-Taxifolin],Z Score,,1.321
CCN1CCCC1CNC(=O)c1cc(S(N)(=O)=O)ccc1OC (stereo not shown) [(B1)-Sulpiride],Z Score,,−0.2841
CCOC(=O)C1=C(C)NC(C)=C(C(=O)OC)C1c1cccc(Cl)c1Cl (stereo not shown) [Felodipine],Z Score,[7],−0.9658
same,Z score,[4],−0.966
NS(=O)(=O)c1cc2c(cc1Cl)NCNS2(=O)=O [Hydrochlorothiazide],Z Score,[7],−0.212
same,Z score,[4],−0.212
same,Activity,[10],no
CNCCc1ccc(O)c(O)c1.Cl [N-Methyldopamine hydrochloride],Z Score,[3],−1.219
same,Z score,[8],−1.219
same,Activity,[10],no
O=C(O)Cc1c[nH]c2ccc(O)cc12 [5-Hydroxyindolacetic acid],Z Score,[3],−1.301
same,Z score,[4],−1.301
same,Activity,[10],no
O=[N+]([O-])c1cccc2c(Br)n[nH]c12 [3-Bromo-7-nitroindazole],Z Score,"168 h, 3 µM",−1.68
same,Z score,"168 h, 3 µM",−1.680
same,Activity,[2],no
N#C/C(=C\c1ccc(O)c(O)c1)C(=O)NCCCNC(=O)/C(C#N)=C/c1ccc(O)c(O)c1 [Tyrphostin AG 537],Z Score,,−1.249
same,Z score,[1],−1.249
same,Activity,[2],no
Clc1ccc2c(c1)C(N1CCNCC1)=Nc1ccccc1O2 [Amoxapine],Z Score,"168 h, 3 µM",−1.041
same,Z score,"168 h, 3 µM",−1.041
same,Activity,[2],no
COc1cc(C(=O)OCCCN2CCCN(CCCOC(=O)c3cc(OC)c(OC)c(OC)c3)CC2)cc(OC)c1OC [Dilazep hydrochloride],Z Score,[6],0.2448
same,Z score,[8],0.245
same,Activity,[10],no
C#CCN1C(C)=C(C(=O)OC)C(c2cccc([N+](=O)[O-])c2)C(C(=O)OCC)=C1C (stereo not shown) [MRS 1845],Activity,,no
same,Z Score,,−0.006196
same,Z score,[4],−0.006
CC(C)[C@H](NC(=O)OCc1ccccc1)C(=O)N[C@H](C=O)Cc1ccccc1 [MDL 28170] (Cbz-Val-Phe-aldehyde),Z Score,"168 h, 3 µM",−1.139
same,Z score,"168 h, 3 µM",−1.139
NCCS(=O)O [Hypotaurine],Activity,,no
same,Z Score,,0.2752
same,Z score,,0.275
CCCNC(=O)NS(=O)(=O)c1ccc(Cl)cc1 [Chlorpropamide],Z Score,[7],−0.1901
same,Z score,[1],−0.190
same,Activity,[2],no
NCc1cc(=O)[nH]o1 [Muscimol hydrobromide],Z Score,,0.1863
same,Z score,[4],0.186
same,Activity,[10],no
CCCCS(=N)(=O)CCC(N)C(=O)O [L-Buthionine-sulfoximine],Z Score,[6],0.5134
same,Z score,[8],0.513
same,Activity,[10],no
CC(C)C(=O)Nc1ccc([N+](=O)[O-])c(C(F)(F)F)c1 [Flutamide],Z Score,[7],−0.1133
same,Z score,[4],−0.113
COc1ccccc1N1CCN(CCN(C(=O)C2CCCCC2)c2ccccn2)CC1.O=C(O)/C=C\C(=O)O [WAY-100635 maleate],Z Score,,−0.4965
same,Z score,[1],−0.497
same,Activity,[2],no
NCC1(CC(=O)O)CCCCC1 [Gabapentin],Z Score,,0.8838
same,Z score,[4],0.884
same,Activity,[10],no
N[C@@H](Cc1ccc(F)cc1)C(=O)O [p-Fluoro-L-phenylalanine],Z Score,"168 h, 3 µM",−0.7023
same,Z score,"168 h, 3 µM",−0.702
same,Activity,[10],no
CC1Cc2cc3c(cc2C(c2ccc(N)cc2)=NN1)OCO3 (stereo not shown) [GYKI 52895],Activity,,no
same,Z Score,,−1.258
same,Z score,[4],−1.258
NC(=O)c1ccccc1 [Beuzamide],Z Score,,0.5498
O=C(O)C1=CC(=C(c2ccc(O)c(C(=O)O)c2)c2ccc(O)c(C(=O)O)c2)C=CC1=O [Aurintricarboxylic acid],Z Score,"168 h, 3 µM",0.5709
same,Z score,"168 h, 3 µM",0.571
"Cn1c(=O)c2[nH]c(-c3ccccc3)nc2n(C)c1=O [1,3-Dimethyl-8-phenylxanthine]",Z Score,"168 h, 3 µM",0.7518
same,Z score,"168 h, 3 µM",0.752
same,Activity,[12],no
CC[C@@H](CO)NC(=O)[C@@H]1C=C2c3cccc4c3c(cn4C)C[C@H]2N(C)C1 [Methysergide maleate],Z Score,,−0.01983
same,Z score,[4],−0.020
same,Activity,[9],no
CC(=O)OCC1=C(C(=O)O)N2C(=O)[C@@H](NC(=O)Cc3cccs3)[C@H]2SC1 [Cephalothin sodium],Z Score,[11],2.264
same,Z score,[4],2.264
same,Activity,[5],no
OC[C@H]1O[C@@H](n2cnc3c(NCCc4ccccc4)ncnc32)[C@H](O)[C@@H]1O [N6-2-Phenylethyladenosine],Z Score,[6],0.5312
same,Z score,[4],0.531
same,Activity,[12],no
CN(C)CCCC1(c2ccc(F)cc2)OCc2cc(C#N)ccc21 (stereo not shown) [Citalopram hydrobromide],Z Score,[3],−1.858
same,Z score,[8],−1.858
same,Activity,[10],no
NC(=O)c1ncn([C@@H]2O[C@H](CO)[C@@H](O)[C@H]2O)n1 [Ribavirin],Activity,,no
C[N+](C)(C)CCO.[Br-] [Choline bromide],Activity,,no
same,Z Score,,−0.73
same,Z score,,−0.730
O=C[C@H](Cl)[C@@H](O)[C@H](O)[C@H](O)CO [2-Chloro-2-deoxy-D-glucose],Z Score,[3],−2.364
same,Z score,[4],−2.364
same,Activity,[9],yes
CCCN(CCc1ccccc1)C1CCc2c(O)cccc2C1.Cl (stereo not shown) [(B1)-PPHT hydrochloride],Z Score,,−1.915
"Br.Br.N=C(N)SCCc1ccc(CCSC(=N)N)cc1 [1,4-PBIT dihydrobromide]",Z Score,,−1.179
same,Z score,[4],−1.179
same,Activity,[12],no
Vinblastine sulfate salt,Z Score,,−9.396
same,Z score,[4],−9.396
same,Activity,[5],yes
C=CCc1ccccc1OCC(O)CNC(C)C (stereo not shown) [Alprenolol hydrochloride],Z Score,[3],−2.143
same,Z score,[1],−2.143
same,Activity,[2],no

# Source: patent US8058243B2, “Method for treating a brain cancer with ifenprodil” (HSC Research and Development Limited Partnership, priority 2006, dated 2011)
